Results published in US20080206374A1 (priority 2003, published 2008).

How the values were obtained:
thrombosis in vitro = thrombosis in vitro of rats (Chandler method); type: in vivo; conditions: 90 mg/kg i.v., once per day for 3 days
Experimental: (§1) All the animal groups were intravenously injected the medicaments through caudal vein with the said dose of 4 ml/kg, once per day for continuously 3 days. 30 minutes after the final injection, animals were anaesthetized with pentobarbital sodium (30.0 mg/kg). 2 ml blood was then drawn from the abdominal aorta for the measurement of the thrombosis in vitro and 3 ml blood (heparinized) was drawn for the measurement of blood viscosity.
Measurement of the thrombuses in vitro: According to Chandler method in vitro, the blood was immediately filled and sealed in a rotating ring with the volume less than ½ ring (1.8 ml). It was placed on a thrombosis Instrument and rotated for 10 minutes (with experimental temperature of 37° C.). Then the thrombus was spilled out and washed with physiological saline. The length was measured and the wet quality was weighed. The thrombus bar was placed in an 80° C. oven for 3 hours. It was weighed after the weight getting stable.

Platelet Aggregation = test: platelet aggregation of rabbits (Born Turbidimetry); type: in vivo; conditions: 45 mg/kg i.v. once per day for 3 days
Experimental: Before administration, the artery in ears was punctured and the blood was taken to measure the platelet aggregation rate. According to the level of platelet aggregation and the body weight, the 48 rabbits were randomly divided into 6 groups (8 rabbits per group):
The administration groups were administered medicaments intravenously through ear edges with the said dosages, and the Control group was injected with equivalent volume of 0.9% sodium chloride, once per day for continuously 3 days. After the final medicaments administration, the artery in ears was punctured, the blood sample was taken and the platelet aggregation rate was measured.
The artery in ears was punctured with a siliconized injector to take blood sample, which was anticoagulated with the citron sodium solution (blood:anticoagulant=9:1). The blood sample solution was centrifuged at 200×g for 8 minutes, and the supernatant, that is, the Platelet Rich Plasma (PRP) was taken. The rest of the solution was centrifuged at 2200×g for 10 minutes, and the top clear part, that is, the Platelet Poor Plasma (PPP) was taken. The count of Platelets in PRP was about 4.0×10^5/mm^3. According to the Born Turbidimetry, the turbidity tube with 200 μl PRP and a small magnetic stick was placed in the platelet aggregation instrument and kept at 37° C. for one minute. After PPP being standardized, an inducer was added with stirring to induce the aggregation. The end concentration of the inducer is: 47.6 μM/L (ADP), 782.0 μM/L (M), and […] (Collagen). The influence of the medicaments upon the Platelet Aggregation was analyzed according to the aggregation curves and maximal aggregation rate printed by the instrument. The calculating formula for maximal aggregation rate was as follows:
aggregation=Transmittance after PRP Aggregation−Transmittance before PRP Aggregation×100% rate Transmittance of PPP−Transmittance before PRP Aggregation

blood viscosity of rats = type: in vivo; conditions: 90 mg/kg i.v., once per day for 3 days
Experimental: as §1
Measurement of the blood viscosity: 0.8 ml blood was taken from the 3 ml blood sample (heparinized) to measure the whole blood viscosity. The rest of the sample was centrifuged at 650×g for 10 minutes. 0.8 ml supernatant was taken to measure the blood plasma viscosity.

Sarcoma S180 lines = conditions: cyclophosphamide alone
Text: Kunming Hybrid mice with weight of 18-22 g were inoculated with Sarcoma S180 lines.
The experimental medicament and animals of this experiment were the same as that of Experimental Example 2.

Structure (SMILES) | Thrombus Dry weight (thrombosis in vitro) [mg] | Thrombus Length (thrombosis in vitro) [mm] | Thrombus Wet weight (thrombosis in vitro) [mg] | Aggregation Rate After administration (Platelet Aggregation; Inducer AA) [%] | Aggregation Rate Value Difference (after − before) (Platelet Aggregation; Inducer AA) [%] | Aggregation Rate After administration (Platelet Aggregation; Inducer ADP) [%] | Aggregation Rate Value Difference (after − before) (Platelet Aggregation; Inducer ADP) [%] | Aggregation Rate After administration (Platelet Aggregation; Inducer Collagen) [%] | Aggregation Rate Value Difference (after − before) (Platelet Aggregation; Inducer Collagen) [%] | Blood viscosity (100 S^−1) (blood viscosity of rats) | Whole blood viscosity, High shearing (200 S^−1) (blood viscosity of rats) [CP] | Whole blood viscosity, Low shearing (5 S^−1) (blood viscosity of rats) [CP] | Whole blood viscosity, Middle shearing (30 S^−1) (blood viscosity of rats) [CP] | Whole blood viscosity, Middle shearing (100 S^−1) (blood viscosity of rats) [CP] | tumor body (M ± SD) (Sarcoma S180 lines) [volume %] | Rate of Inhibiting tumors (Sarcoma S180 lines; compared with the Blank Control group) [%Δ]
CC(=O)Oc1ccccc1C(=O)O.NCCCCC(N)C(=O)O (racemic) [Aspirin-DL-Lysine] | 18.9 ± 1.4 | 18.8 ± 1.5 | 100.1 ± 12.5 | 0.24 ± 0.69 | −63.65 ± 7.05 | 57.78 ± 6.01 | 8.85 ± 6.37 | 45.29 ± 5.72 | −21.19 ± 4.24 | 2.38 ± 1.12 | 3.37 ± 0.58 | 6.35 ± 1.03 | 4.71 ± 0.95 | 3.81 ± 0.91 | – | –
O=P1(N(CCCl)CCCl)NCCCO1 (stereo not shown) [cyclophosphamide] | – | – | – | – | – | – | – | – | – | – | – | – | – | – | 0.89 ± 0.55 | 65
